Results reported in publication PMC5641551, “Chemical Proteomics for Target Discovery of Head-to-Tail Cyclized Mini-Proteins” (Frontiers in Chemistry, 2017).
No end group written: not given here.

Tested on: 14-3-3 proteins in living Jurkat cells
Test: photo-affinity pull down on living Jurkat cells with competitor
Type: binding, human
Conditions: 2 h incubation with bait, [T20K]kB1 competitor at 60-fold molar excess, UV irradiation
Experimental: Biotin-LC-LC-labeled (ThermoFisher) peptides (1–5 nmoles) with or without (non-biotinylated) competitor ([…]) for 2 h at 4°C in the presence of protease inhibitors. UV-activation of photo-crosslinking moiety benzophenone was induced by irradiation at 360 nm on ice for 15 min (Stratalinker, Stratagene, CA, United States). Streptavidin-coated magnetic nanobeads 2–4 mg (1–3-fold excess of binding capacity to applied biotin-bait) facilitated the precipitation (Hyglos, Bernried, Germany). The binding could proceed overnight at 4°C. The supernatants were removed and the beads were washed several times, unless stated otherwise and used for SDS-PAGE, unless stated otherwise. For cyclotide experiments the following peptides were used: biotinylated [T20K]kB1 or [T20K,W23Bpa]kB1 as bait and [T20K]kB1, [T20K,W23Bpa]kB1, or R18 ([…]; Sigma Aldrich), a 14-3-3 family specific peptide inhibitor, as competitors. Generally, beads were washed with lysis buffer containing 1% (v/v) Triton-X100 and 0.2% SDS (w/v) and protease inhibitor cocktail for 3 h followed by wash with 0.12 mM phosphate buffered high saline (PBhS) pH 7.4, 1 M NaCl and 12 mM KCl, 1 mM EDTA for 2 h. Lastly, the beads were washed three times for 5 min with lysis buffer. […] Peptide-protein co-precipitations of 14-3-3 proteins and cyclotides were analyzed with GST-tagged 14-3-3β protein (0.25 μg; EnzoLifeSciences, New York, United States). […]

How did the “retention of labeled 14-3-3 proteins on affinity beads in presence of competitor” value turn out when “CGETCVGGTCNTPGCKCSWPVCTRNGLPV (also: bicyclic or more (positions not given here)) [[T20K]kB1, synthetic cyclotide drug candidate, Thr20 to Lys mutant of kalata B1]” was run?
Its value is “competitively reduced”.
